Results on 1 molecule are retold here after ChEMBL document CHEMBL5370533 (Eur J Med Chem, 2023).

The subject of one series is U-937. Nature of the series: Antiproliferative activity against human U-937 cells expressing low level wild type FLT3 assessed as inhibition of cell growth. It counts as functional, cell-based.
Series [1] deals with Receptor-type tyrosine-protein kinase FLT3 (Homo sapiens, UniProt P36888, D835H). The experiment in a line: Binding affinity to FLT3 D835H mutant (unknown origin).
Series [2] is described as follows: Cytotoxicity against human PBMC cells assessed as inhibition of cell growth. It counts as toxicity, cell-based.
Series [3] concerns the target CDK6/cyclin D1 (Homo sapiens) (UniProt P24385+Q00534). The experiment in a line: Inhibition of CDK6/Cyclin D1 (unknown origin). The note with it: concentration not given here. Format: protein-complex assay.
The target of series [4] is Mast/stem cell growth factor receptor Kit (Homo sapiens) (UniProt P10721). The experiment in a line: Inhibition of c-Kit (unknown origin).
Series [5] concerns MV4-11. Nature of the series: Antiproliferative activity against human MV4-11 cells harboring FLT3 ITD mutant assessed as inhibition of cell growth incubated for 72 hrs by CellTiter-Glo luminescent assay. Format: functional, cell-based. The note with it: MV4-11, 72 h. (In ATP-based viability assays light output follows the ATP content of the culture.)
A further series has as its system NCI-H460. The experiment in a line: Antiproliferative activity against human NCI-H460 cells assessed as inhibition of cell growth. Format: functional.
Another series concerns KM12. The experiment in a line: Antiproliferative activity against human KM12 cells assessed as inhibition of cell growth. It counts as functional.
The next series has as its system ACHN. The experiment in a line: Antiproliferative activity against human ACHN cells assessed as inhibition of cell growth. It counts as functional.
Series [6] concerns the target Receptor-type tyrosine-protein kinase FLT3 (Homo sapiens, UniProt P36888, D835Y). Nature of the series: Binding affinity to FLT3 D835Y mutant (unknown origin).
The target of series [7] is Receptor-type tyrosine-protein kinase FLT3 (Homo sapiens, UniProt P36888, ITD). The experiment in a line: Binding affinity to FLT3 ITD mutant (unknown origin).
Series [8] addresses Receptor-type tyrosine-protein kinase FLT3 (Homo sapiens, UniProt P36888, F691L/ITD). Nature of the series: Binding affinity to FLT3 ITD/F691L mutant (unknown origin).
Series [9] deals with Receptor-type tyrosine-protein kinase FLT3 (Homo sapiens, UniProt P36888, K663Q). Nature of the series: Binding affinity to FLT3 K663Q mutant (unknown origin).
Series [10] in a line: Cytotoxicity against mouse BaF3 cells assessed as inhibition of cell growth incubated for 72 hrs. It counts as toxicity, cell-based.
The test system of series [11] is BaF3. Nature of the series: cells. The note with it: Mus musculus, BaF3, 72 h. It counts as functional, cell-based.
Description: Antiproliferative activity against mouse BaF3 cells harboring FLT3 ITD/N676D mutant assessed as inhibition of cell growth incubated for 72 hrs
The subject of series [12] is BaF3. The experiment in a line: Antiproliferative activity against mouse BaF3 cells harboring FLT3 D835V mutant assessed as inhibition of cell growth incubated for 72 hrs. Format: functional, cell-based. Conditions: BaF3, 72 h.
Series [13] can be described thus: Tmax in rat at 10 mg/kg, po. It counts as ADME, organism-based. The note with it: in vivo.
The nature of series [14]: Cmax in rat at 10 mg/kg, po. It counts as ADME, organism-based. Set-up: dose 10 mg/kg, route po. The note with it: in vivo.
The nature of series [15]: Tmax in Beagle dog at […], po. Conditions: in vivo, dose 1.5 mg/kg. It counts as ADME, organism-based, Canis lupus familiaris.
A short description of series [16]: Oral bioavailability in Beagle dog at […]. It counts as ADME, organism-based, Canis lupus familiaris. Conditions: in vivo, dose 1.5 mg/kg.
The subject of series [17] is MV4-11. The experiment in a line: Antitumor activity against human MV4-11 cells xenografted in nu/nu mouse assessed as inhibition of tumor growth at 25 mg/kg, po qd for 2 weeks by vernier caliper analysis. The note with it: MV4-11, 336 h. It counts as functional.
Series [18] is described as follows: Toxicity against nu/nu mouse xenografted with human MV4-11 cells assessed as decrease in body weight at 25 mg/kg, po qd for 2 weeks. It counts as organism-based. The note with it: in vivo, 336 h. (Xenograft models place foreign cells or tissue in a host animal.)
Series [19] deals with Receptor-type tyrosine-protein kinase FLT3 (Homo sapiens) (UniProt P36888). Nature of the series: Inhibition of FLT3 in human MV4-11 cells assessed as decrease in phosphorylated STAT5 level incubated for 24 hrs by immunoblot analysis. Conditions: dose 20-600 nM. Format: cell-based.

The source made the active and inactive calls. The calls are words filed in the database; no cut-off is given here.

For orientation: IC50 means the concentration needed to halve the response being measured. As usually defined, the Kd is the free concentration of one partner at which half of the binding sites on the other are occupied at equilibrium, for simple one-to-one binding. A high value points to lower affinity. Usually inhibition stands for the drop in the measured response relative to a control, in per cent. For orientation: GI50 means the concentration giving 50% growth inhibition. What is called Tmax is the time from dosing to the highest level. The term Cmax denotes the peak of the concentration-time curve. Usually bioavailability stands for dose-corrected exposure relative to a reference, in per cent. Higher therefore signals much systemic uptake. The inhibition in vivo is the drop in the measured response relative to a control, in per cent.

Mast/stem cell growth factor receptor Kit (Homo sapiens), sequence (P10721 whole entry): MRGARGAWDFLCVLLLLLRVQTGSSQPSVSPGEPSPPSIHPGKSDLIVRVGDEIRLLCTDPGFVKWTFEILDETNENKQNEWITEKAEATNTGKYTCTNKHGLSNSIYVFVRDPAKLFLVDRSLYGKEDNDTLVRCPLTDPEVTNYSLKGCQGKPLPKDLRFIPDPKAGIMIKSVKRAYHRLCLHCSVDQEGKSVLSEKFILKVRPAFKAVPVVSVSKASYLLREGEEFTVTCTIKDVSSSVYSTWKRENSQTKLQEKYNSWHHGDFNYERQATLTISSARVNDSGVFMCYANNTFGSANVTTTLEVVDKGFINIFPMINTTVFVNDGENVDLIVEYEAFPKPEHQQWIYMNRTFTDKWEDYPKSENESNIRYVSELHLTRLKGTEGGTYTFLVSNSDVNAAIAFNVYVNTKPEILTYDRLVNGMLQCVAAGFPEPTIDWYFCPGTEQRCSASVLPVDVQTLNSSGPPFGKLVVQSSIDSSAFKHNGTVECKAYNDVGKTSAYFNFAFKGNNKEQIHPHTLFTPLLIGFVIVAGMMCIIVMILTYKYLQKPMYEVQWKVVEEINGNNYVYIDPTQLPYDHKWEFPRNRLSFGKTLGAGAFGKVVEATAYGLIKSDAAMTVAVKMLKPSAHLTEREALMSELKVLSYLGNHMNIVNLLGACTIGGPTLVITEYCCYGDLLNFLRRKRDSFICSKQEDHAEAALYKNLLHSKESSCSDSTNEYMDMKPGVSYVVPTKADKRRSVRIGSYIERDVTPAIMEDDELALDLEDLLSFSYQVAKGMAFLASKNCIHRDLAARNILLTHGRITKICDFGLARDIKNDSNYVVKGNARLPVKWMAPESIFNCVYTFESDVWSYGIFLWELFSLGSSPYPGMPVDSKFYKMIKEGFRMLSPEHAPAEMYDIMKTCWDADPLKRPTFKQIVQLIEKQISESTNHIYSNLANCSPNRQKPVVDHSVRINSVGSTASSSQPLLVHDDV

With `O=C(Nc1ccc(N2CCNCC2)cc1)c1n[nH]cc1Nc1cc(Oc2ccccc2)ncn1`, the IC50 in the series with U-937 stood at 0.692 µM; in [2] it was 0.831 µM; in the series with MV4-11 [5], 0.015 µM; with BaF3 [11], 0.054 µM; with BaF3 [12], 0.043 µM. The Kd in series [1] came to 0.0485 µM; in [6], 0.00716 µM; in series [7], 0.0182 µM; in series [8], 0.00161 µM; in series [9], 0.121 µM. The inhibition in [3] is 68.8%; in [19], “Dose-Dependent Effect”. Besides, the inhibition result in series [4] is “Active”. In addition, the GI50 in the series with NCI-H460, with KM12 and in the series on ACHN was less than 1 µM in each case. In addition, the 50% inhibitory concentration (IC50) at 72 h in series [10] stood at 2.92 µM. Besides, the Tmax was found to be 4 h in series [13] and 1.67 h in [15]. In [14], the Cmax stood at 144 ng/mL. For the same molecule, in series [16], the bioavailability was 72.7%. The inhibition in vivo at 25 mg/kg with MV4-11 [17] amounted to 94.2%. Moreover, the Activity result in [18] is recorded as “Non-Toxic”.
